According to US20230075925A1, “NON-PERIPHERAL QUATERNARY AMMONIUM-MODIFIED ZINC PHTHALOCYANINE AND PREPARATION METHOD AND USE THEREOF” (FUZHOU UNIVERSITY, priority 2020, published 2023):

Legend:
[1] = tested on: melanoma cells B16-F10 tumors (proximal and distal); experiment: PDT / anti-PD-L1 combination therapy in bilateral B16-F10 tumor-bearing mouse model (tumor inhibition rate); format: in vivo; settings: for tumor inhibition rate on proximal tumors (illuminated tumors): PDT group (phthalocyanine+illumination), 100 μL of 200 μM, 685 nm 15 mW/cm^2 5 min, 14 days
Protocol: A bilateral tumor-bearing mouse model of melanoma cells B16-F10 (proximal and distal) was established. During PDT, the proximal referred to an illuminated side, and the distal referred to a non-illuminated side. The distribution and metabolism of photosensitizers in the tumor-bearing mouse were investigated by a small animal fluorescence imager and a tissue extraction method, and PDT was conducted under optimal conditions. The following 5 groups of experiments were set up, with 5 mice in each group: a PBS control group; an anti-PD-L1 antibody treatment group; a simple phthalocyanine (no illumination) treatment group; a phthalocyanine+illumination treatment group, namely a PDT group; and a phthalocyanine+illumination+anti-PD-L1 antibody treatment group, namely a combination therapy group. The anti-PD-L1 antibody was purchased from BioX cell.
In the combination therapy group, the PDT group and the simple photosensitizer group, 100 μL of a phthalocyanine compound (at a concentration of 200 μM, diluted with 0.5% CEL) was administered to each mouse. The combination therapy group and the PDT group were irradiated by a laser with a wavelength of 685 nm (at an irradiation power of 15 mW/cm^2 for 5 min) on the right tumor (proximal tumor) 8 h to 12 h after the administration. The combination therapy group was administered at 50 μg of PD-L1 antibody/mouse immediately after laser treatment, and the antibody group was administered 50 μg of PD-L1 antibody/mouse at the same time. One treatment was given on the first and fourth day separately.
From the first treatment, a body weight and a tumor volume of all mice were measured every other day, and a tumor size was calculated according to a formula: tumor volume=tumor length×width×height×π/6; after 14 consecutive days of observation, a tumor inhibition rate of each experimental group was calculated.

[2] = tested on: human cervical cancer cells Hela; experiment: Dark toxicity and photodynamic activity on Hela cells (MTT cell viability); format: cell-based; settings: 4 μM
Protocol: The non-peripheral quaternary ammonium-modified zinc phthalocyanine prepared in Example 1 was dissolved in a 1% castor oil derivative (Cremophor EL, wt %) aqueous solution to prepare a 0.1 mM photosensitizer. The dark toxicity and photodynamic activity of the photosensitizer were tested on human cervical cancer cells Hela.
0.1 mM or 0.2 mM of the photosensitizer was diluted into a cell medium to prepare a cell medium containing zinc phthalocyanine complexes at different concentrations. The cancer cells were cultured in the medium containing different concentrations of zinc phthalocyanine complexes for 2 h; after staining, the medium was discarded; and after washing with PBS, the cells were added into a new medium (without zinc phthalocyanine complexes). Illumination experiment group: the cells were irradiated with red light for 30 min at a power of irradiated light at 15 mW cm^−2 using red light with a wavelength greater than 600 nm as an excitation light source; non-illumination control group: the cells were placed in the dark for 30 min. After illumination or non-illumination, a cell viability was examined by MTT. The specific experimental steps referred to “Bioorganic & Medicinal Chemistry Letters, 2006, 16, 2450-2453”. […]

B16-F10 cells = experiment: Tumor recurrence (immune memory) after re-injection of B16-F10 cells following combination therapy; format: in vivo, ICR mouse; settings: combination with PD-L1 antibody; 1×10^6 B16-F10 cells injected on 7th day after therapy, observed 21 d, 5 mice
From the text: More importantly, the mice treated with a combination of the zinc phthalocyanine in Example 1 and the PD-L1 antibody have an immune memory effect, which can effectively prevent tumor recurrence. On a 7th day after the combination therapy of zinc phthalocyanine in Example 1 and PD-L1 antibody, 1×10^6 B16-F10 cells were subcutaneously injected into a left ventral side of each ICR mouse (5 mice in each group), and the mice were continued to be observed for 21 d. […] However, the mice in remaining control groups are observed to have obvious melanoma regrowth, and no ability is observed to prevent tumor recurrence.

Row | Compound | tumor inhibition rate on proximal tumors (illuminated tumors) [1] [%] | tumor inhibition rate on distal tumors (unilluminated tumors) ([1]; combination therapy group: phthalocyanine+illumination+anti-PD-L1 antibody (50 μg/mouse)) [%] | effect on in situ tumors ([1]; combined with immune checkpoint blocker PD-L1 antibody) | cancer cells killed under red light irradiation ([2]; red light 15 mW cm^−2 for 30 min) [%] | dark toxicity (killing and growth inhibition of Hela cells without irradiation) ([2]; without irradiation, 2 h incubation) | effective rate in preventing recurrence (B16-F10 cells) [%]
1 | 1-[4-(aminoethyl)phenoxy] zinc phthalocyanine [Comparative Example 1, reference compound] | 69 | – | – | – | – | –
2 | C[N+](C)(C)CCc1ccc(Oc2cccc3c4nc5nc(nc6nc(nc7[n-]c(nc([n-]4)c23)c2ccccc72)-c2ccccc2-6)-c2ccccc2-5)cc1.[I-].[Zn+2] [Example 1, 1-[4-(N,N,N-trimethyl-2-aminoethyl)phenoxy] zinc phthalocyanine iodide] | 51 | 90 | completely remove in situ tumors | 100 | no dark toxicity | 80
